Target: Pim-1 (Homo sapiens (Human), UniProt P11309)
Assay: Pim kinase binding activity assay (Example 901), PIM-1 enzyme, Caliper microfluidic peptide phosphorylation
Type: biochemical
Settings: 20 pM PIM-1, 10 μM ATP, 1 μM FAM-peptide, 90 minutes at room temperature
Experimental: Pim Kinase Binding Activity
A fluorescent-labeled Pim-specific peptide substrate, was custom synthesized by American Peptide Company (Sunnyvale, Calif.). Reaction Buffer contained 10 mM HEPES, pH 7.2, 10 mM MgCl2, 0.01% Tween 20, 2 mM DTT. Termination Buffer contained 190 mM HEPES, pH 7.2, 0.015% Brij-35, 0.2% Coating Reagent 3 (Caliper Life Sciences, Hopkinton, Mass.), 20 mM EDTA. Separation Buffer contained 100 mM HEPES, pH 7.2, 0.015% Brij-35, 0.1% Coating Reagent 3, 1:200 Coating Reagent 8 (Caliper Life Sciences, Hopkinton, Mass.), 10 mM EDTA and 5% DMSO.
PIM reactions were carried out in a final volume of 10 μL per well in a 384-well plate. A standard enzymatic reaction, initiated by the addition of 5 μL 2×ATP and test compound to 5 μL of 2× enzyme and FAM-peptide, contained 20 pM PIM-1, 50 pM PIM-2, or 55 pM PIM-3, 1 μM FAM-peptide, and 10 μM ATP, in Reaction Buffer. After 90 minutes of incubation at room temperature, the phosphorylation reaction was stopped by the addition of 10 μL Termination Buffer. The product and substrate in each independent reaction were separated on a 12-sipper microfluidic chip (Caliper Life Sciences, Hopkinton, Mass.) run on a Caliper LC3000® (Caliper Life Sciences, Hopkinton, Mass.). The separation of product and substrate was optimized by choosing voltages and pressure using Caliper's Optimizer software (Hopkinton, Mass.). […] The product and substrate fluorophore were excited at 488 nm and detected at 530 nm. Substrate conversion was calculated from the electropherogram using HTS Well Analyzer software (Caliper Life Sciences, Hopkinton, Mass.). Ki values for the test compound were calculated.

Sequence of Pim-1 (P11309 whole entry): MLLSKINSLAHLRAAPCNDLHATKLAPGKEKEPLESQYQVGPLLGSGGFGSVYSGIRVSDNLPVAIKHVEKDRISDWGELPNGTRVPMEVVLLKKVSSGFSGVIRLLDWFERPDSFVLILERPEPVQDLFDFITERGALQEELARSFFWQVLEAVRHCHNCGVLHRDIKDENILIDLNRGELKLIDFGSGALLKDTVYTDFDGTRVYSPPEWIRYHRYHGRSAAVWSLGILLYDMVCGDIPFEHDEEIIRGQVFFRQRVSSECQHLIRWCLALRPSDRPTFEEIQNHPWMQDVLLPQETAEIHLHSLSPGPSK

Row | Structure (SMILES) | Ki [nM]
1 | CCn1cc(-c2cc3c(-c4cccc(N5CCC[C@H](N)C5)n4)n[nH]c3cn2)cn1 [Example 445, (S)-1-(6-(5-(1-ethyl-1H-pyrazol-4-yl)-1H-pyrazolo[3,4-c]pyridin-3-yl)pyridin-2-yl)piperidin-3-amine] | 0.031
2 | Fc1ccccc1-c1n[nH]c2cnc(-c3cncs3)cc12 [Example 348, 5-(3-(2-fluorophenyl)-1H-pyrazolo[3,4-c]pyridin-5-yl)thiazole] | 26.8
3 | CCn1cc(-c2cc3c(-c4cccc(N5CCC[C@](C)(O)C5)n4)n[nH]c3cn2)cn1 [Example 464, (S)-1-(6-(5-(1-ethyl-1H-pyrazol-4-yl)-1H-pyrazolo[3,4-c]pyridin-3-yl)pyridine-2-yl)-3-methylpiperidin-3-ol] | 0.0721
4 | N[C@@H]1CCC[C@@H](Nc2cccc(-c3n[nH]c4cnc(-c5cccnc5)cc34)n2)C1 [Example 352, (1R,3R)-N1-(6-(5-(pyridin-3-yl)-1H-pyrazolo[3,4-c]pyridin-3-yl)pyridin-2-yl)cyclohexane-1,3-diamine] | 0.025
5 | CCn1cc(-c2cc3c(-c4cccc(N5CCCCC(O)C5)n4)n[nH]c3cn2)cn1 (centres unmarked) [Example 494, 1-(6-(5-(1-ethyl-1H-pyrazol-4-yl)-1H-pyrazolo[3,4-c]pyridin-3-yl)pyridin-2-yl)azepan-3-ol] | 0.122
6 | Fc1ccccc1-c1n[nH]c2cnc(-c3cnccn3)cc12 [Example 219, 3-(2-fluorophenyl)-5-(pyrazin-2-yl)-1H-pyrazolo[3,4-c]pyridine] | 33.5
7 | CCCn1cc(-c2cc3c(-c4cccc(N5CCNCC5)n4)n[nH]c3cn2)cn1 [Example 375, 3-(6-(piperazin-1-yl)pyridin-2-yl)-5-(1-propyl-1H-pyrazol-4-yl)-1H-pyrazolo[3,4-c]pyridine] | 0.039
8 | Fc1ccccc1-c1n[nH]c2cnc(-c3cnccc3OC[C@H]3CCNC3)cc12 [Example 211, (S)-3-(2-fluorophenyl)-5-(4-(pyrrolidin-3-ylmethoxy)pyridin-3-yl)-1H-pyrazolo[3,4-c]pyridine] | 1.28
9 | CCn1cc(-c2cc3c(-c4cccc(N5CCC[C@@H](N)CC5)n4)n[nH]c3cn2)cn1 [Example 471, (R)-1-(6-(5-(1-ethyl-1H-pyrazol-4-yl)-1H-pyrazolo[3,4-c]pyridin-3-yl)pyridin-2-yl)azepan-4-amine] | 0.073
10 | O=C1N(c2n[nH]c3cnc(-c4cccnc4)cc23)CCC12CCNCC2 [Example 295, 2-(5-(pyridin-3-yl)-1H-pyrazolo[3,4-c]pyridin-3-yl)-2,8-diazaspiro[4.5]decan-1-one] | 39.9
11 | Cc1ccc(-c2n[nH]c3cnc(-c4cccnc4)cc23)nc1 [Example 275, 3-(5-methylpyridin-2-yl)-5-(pyridin-3-yl)-1H-pyrazolo[3,4-c]pyridine] | 6.92
12 | Cc1n[nH]c2cnc(-c3cncc(N4CCC[C@@H](N)C4)n3)cc12 [Example 121, (R)-1-(6-(3-methyl-1H-pyrazolo[3,4-c]pyridin-5-yl)pyrazin-2-yl)piperidin-3-amine] | 6.91
13 | C1=C(c2n[nH]c3cnc(-c4cccnc4)cc23)CCCO1 [Example 281, 3-(3,4-dihydro-2H-pyran-5-yl)-5-(pyridin-3-yl)-1H-pyrazolo[3,4-c]pyridine] | 28.8
14 | CCn1cc(-c2cc3c(-c4cccc(NC5CCCC(N)C5)n4)n[nH]c3cn2)cn1 (centres unmarked) [Example 461, N1-(6-(5-(1-ethyl-1H-pyrazol-4-yl)-1H-pyrazolo[3,4-c]pyridin-3-yl)pyridin-2-yl)cyclohexane-1,3-diamine] | 0.0593
15 | Cn1cc(-c2cc3c(-c4ccc(Br)c(N5CCOCC5)n4)n[nH]c3cn2)cn1 [Example 449, 4-(3-bromo-6-(5-(1-methyl-1H-pyrazol-4-yl)-1H-pyrazolo[3,4-c]pyridin-3-yl)pyridin-2-yl)morpholine] | 0.191
16 | c1cc(-c2n[nH]c3cnc(-c4cnn(C5CC5)c4)cc23)nc(N2CCNCC2)c1 [Example 487, 5-(1-cyclopropyl-1H-pyrazol-4-yl)-3-(6-(piperazin-1-yl)pyridin-2-yl)-1H-pyrazolo[3,4-c]pyridine] | 0.106
17 | Cn1cc(-c2cc3c(-c4cccc(N5CCC(N)(C(F)(F)F)C5)n4)n[nH]c3cn2)cn1 (centres unmarked) [Example 286, 1-(6-(5-(1-methyl-1H-pyrazol-4-yl)-1H-pyrazolo[3,4-c]pyridin-3-yl)pyridin-2-yl)-3-(trifluoromethyl)pyrrolidin-3-amine] | 0.093
18 | CCn1cc(-c2cc3c(-c4cccc(N5CC[C@H](F)[C@H](N)C5)n4)n[nH]c3cn2)cn1 (relative stereo) [Example 465, cis-1-(6-(5-(1-ethyl-1H-pyrazol-4-yl)-1H-pyrazolo[3,4-c]pyridin-3-yl)pyridin-2-yl)-4-fluoropiperidin-3-amine] | 0.063

Row | Structure (SMILES) | Ki [nM]
19 | CCn1cc(-c2cc3c(-c4cccc(NC5CCCCNC5)n4)n[nH]c3cn2)cn1 (centres unmarked) [Example 513, N-(6-(5-(1-ethyl-1H-pyrazol-4-yl)-1H-pyrazolo[3,4-c]pyridin-3-yl)pyridin-2-yl)azepan-3-amine] | 0.055
20 | CCn1cc(-c2cc3c(-c4cccc(N5CCC[C@@H](NC)C5)n4)n[nH]c3cn2)cn1 [Example 482, (R)-1-(6-(5-(1-ethyl-1H-pyrazol-4-yl)-1H-pyrazolo[3,4-c]pyridin-3-yl)pyridin-2-yl)-N-methylpiperidin-3-amine] | 0.147
21 | Cc1n[nH]c2cnc(-c3cnccc3N3CCC[C@H](N)C3)cc12 [Example 112, (S)-1-(3-(3-methyl-1H-pyrazolo[3,4-c]pyridin-5-yl)pyridin-4-yl)piperidin-3-amine] | 3500
22 | CNC(=O)C1(N)CCN(c2cccc(-c3n[nH]c4cnc(-c5cccnc5)cc34)n2)CC1 [Example 236, 4-amino-N-methyl-1-(6-(5-(pyridin-3-yl)-1H-pyrazolo[3,4-c]pyridin-3-yl)pyridin-2-yl)piperidine-4-carboxamide] | 0.353
23 | O=C1N(CC2CCNC2)CCN1c1n[nH]c2cnc(-c3cccnc3)cc12 (centres unmarked) [Example 303, 1-(5-(pyridin-3-yl)-1H-pyrazolo[3,4-c]pyridin-3-yl)-3-(pyrrolidin-3-ylmethyl)imidazolidin-2-one] | 4.11
24 | O[C@H]1CCN(c2nc(-c3n[nH]c4cnc(-c5cccnc5)cc34)ccc2Br)C1 [Example 318, (S)-1-(3-bromo-6-(5-(pyridin-3-yl)-1H-pyrazolo[3,4-c]pyridin-3-yl)pyridin-2-yl)pyrrolidin-3-ol] | 0.059
25 | Cn1cc(-c2cc3c(-c4ccccc4)n[nH]c3cn2)cn1 [Example 133, 5-(1-methyl-1H-pyrazol-4-yl)-3-phenyl-1H-pyrazolo[3,4-c]pyridine] | 5.57
26 | NC(=O)Cc1cc2c(-c3cccc(N4CCNCC4)n3)n[nH]c2cn1 [Example 253, 2-(3-(6-(piperazin-1-yl)pyridin-2-yl)-1H-pyrazolo[3,4-c]pyridin-5-yl)acetamide] | 171
27 | Cc1ccc(-c2n[nH]c3cnc(-c4cccnc4)cc23)nc1N1CCC(N)CC1 [Example 243, 1-(3-methyl-6-(5-(pyridin-3-yl)-1H-pyrazolo[3,4-c]pyridin-3-yl)pyridin-2-yl)piperidin-4-amine] | 0.049
28 | c1cncc(-c2cc3c(N4CCCC4)n[nH]c3cn2)c1 [Example 252, 5-(pyridin-3-yl)-3-(pyrrolidin-1-yl)-1H-pyrazolo[3,4-c]pyridine] | 10
29 | Cc1n[nH]c2cnc(-c3cccnc3)cc12 [Example 101, 3-methyl-5-(pyridin-3-yl)-1H-pyrazolo[3,4-c]pyridine] | 190
30 | Cn1cc(-c2cc3c(-c4ccnc(C5CCNCC5)n4)n[nH]c3cn2)cn1 [Example 439, 5-(1-methyl-1H-pyrazol-4-yl)-3-(2-(piperidin-4-yl)pyrimidin-4-yl)-1H-pyrazolo[3,4-c]pyridine] | 0.571
31 | CCn1cc(-c2cc3c(-c4cc(OC)ccn4)n[nH]c3cn2)cn1 [Example 476, 5-(1-ethyl-1H-pyrazol-4-yl)-3-(4-methoxypyridin-2-yl)-1H-pyrazolo[3,4-c]pyridine] | 15.7
32 | N#CCc1cc2c(-c3cccc(N4CCNCC4)n3)n[nH]c2cn1 [Example 235, 2-(3-(6-(piperazin-1-yl)pyridin-2-yl)-1H-pyrazolo[3,4-c]pyridin-5-yl)acetonitrile] | 583
33 | O=C1N(CC2CCNCC2)CCN1c1n[nH]c2cnc(-c3cccnc3)cc12 [Example 296, 1-(piperidin-4-ylmethyl)-3-(5-(pyridin-3-yl)-1H-pyrazolo[3,4-c]pyridin-3-yl)imidazolidin-2-one] | 9.74
34 | Cn1cc(-c2cc3c(-c4cccc(N5CCOCC5)n4)n[nH]c3cn2)cn1 [Example 420, 4-(6-(5-(1-methyl-1H-pyrazol-4-yl)-1H-pyrazolo[3,4-c]pyridin-3-yl)pyridin-2-yl)morpholine] | 0.368
35 | NC1CCN(Cc2n[nH]c3cnc(-c4cn[nH]c4)cc23)CC1 [Example 108, l-((5-(1H-pyrazol-4-yl)-1H-pyrazolo[3,4-c]pyridin-3-yl)methyl)piperidin-4-amine] | 1100
